According to patent US20120107284A1, “Stem cells for transplantation and methods for production thereof” (priority 2006, published 2012):

Assays:
[1] = tested on: Renilla luciferase controlled by rtTA2^s-M24C5G; experiment: Dual Tet-system reporter assay, Renilla luciferase, HeLa HLRF33/1141 cotransfected with cTA2D-5 and rtTA2s-M24C5G; type: cell-based; conditions: HeLa cells (HLRF33/1141), 24 h incubation, 1 μg/ml
Protocol: (§1) B: Regulatory properties. HeLa cells (HLRF33/1141) were cotransfected with two plasmids encoding the transregulators cTA2^D-5 and rtTA2^s-M24C5G. Reporter gene expression was scored after 24 h incubation with 1 μg/ml of either cmt3 or dox or both. Luciferase activities were determined from cell extracts and represent the means of triplicate samples with standard deviations given in arbitrary light units (ALU; defined as relative light units per mg of total cell protein corrected for transfection efficiency). Expression of Renilla luciferase controlled by rtTA2^s-M24C5G is increased about 1000-fold and only in the presence of dox (columns 3 and 4). Addition of cmt3 leads to a ˜100-fold decrease in firefly luciferase activity, controlled by cTA2^D-5 (columns 2 and 4), while expression of firefly luciferase is only slightly, less than 2-fold, reduced in the presence of dox. […] The regulatory system is thus functional and can be used for target gene expression in NCSCs.
(§2) Recently two transcription factors have been constructed—cTA2^D-5 and rtTA2^s-M24C5G—with exclusive specificities for DNA binding (wt TRE/4C5G TRE), effector recognition (cmt3/dox) and homodimer formation (class D/class B) (Dr. Christian Berens, Erlangen University). All these components were tested for the first time in eukaryotic cells to determine their regulatory properties (C. Berens, unpublished). […]

[2] = tested on: firefly luciferase activity, controlled by cTA2^D-5; experiment: Dual Tet-system reporter assay, firefly luciferase, HeLa HLRF33/1141 cotransfected with cTA2D-5 and rtTA2s-M24C5G; type: cell-based; conditions: HeLa cells (HLRF33/1141), 24 h incubation, 1 μg/ml
Protocol: as §1, §2

[3] = tested on: dorsal root ganglion neurons; experiment: Functionality of the Tet-system in vivo: DOX to pregnant Sox10-rtTA mice mated with TRE-Aml1/Runx1 males; conditions: [Sox10-rtTA+TRE-Aml1/Runx1] pups; DOX in drinking water during pregnancy days 7-8 and 11.5-14
From the text: FIG. 8. Abnormalities in offspring of pregnant Sox10-rtTA mice which had been mated with TRE-Aml1/Runx1 males and treated with DOX during pregnancy days 7-8 and 11.5-14. Pups with the genotype [Sox10-rtTA+TRE-Aml1/Runx1] are smaller than normal and display pigment defects (upper left), megacolon (lower left), and a reduced size of dorsal root ganglia (upper and lower right).
FIG. 9. The number of dorsal root ganglion neurons is reduced compared to control (1) by about 50% in [Sox10-rtTA+TRE-Aml1/Runx1] pups from Sox10-rtTA mice, which hade been mated with TRE-Aml1/Runx1 males, and treated with DOX during pregnancy days 7-8 and 11.5-14 (2).
The functionality of the Tet-system in vivo was first confirmed. Sox10-rtTA female mice were bred with TRE-Aml1A/Runx1 males and DOX was given in the drinking water to the pregnant females pregnancy days 7 to 8 and 11.5 to 14, which correspond to the period NCSC migration. […] The number of DRG neurons was reduced by about 50% (FIG. 9).

| Compound | Increase in expression of Renilla luciferase controlled by rtTA2^s-M24C5G [1] | Decrease in firefly luciferase activity controlled by cTA2^D-5 [2] | Reduction of the number of dorsal root ganglion neurons compared to control [3] |
| --- | --- | --- | --- |
| C[C@H]1c2cccc(O)c2C(=O)C2=C(O)[C@]3(O)C(=O)C(C(N)=O)=C(O)[C@@H](N(C)C)[C@@H]3[C@@H](O)[C@@H]21 [DOX, doxycycline] | about 1000 fold | less than 2 fold | about 50% |
| NC(=O)C1=C(O)C[C@@H]2C[C@@H]3Cc4cccc(O)c4C(=O)C3=C(O)[C@]2(O)C1=O [cmt3] |  | ~100 fold |  |
